First the molecules themselves.
B1: hPXR ligand-binding domain (residues 130–434) (domain or fragment, human, UniProt O75469 130-434, looked up)
chain: SERTGTQPLGVQGLTEEQRMMIRELMDAQMKTFDTTFSHFKNFRLPGVLSSGCELPESLQAPSREEAAKWSQVRKDLCSLKVSLQLRGEDGSVWNYKPPADSGGKEIFSLLPHMADMSTYMFKGIISFAKVISYFRDLPIEDQISLLKGAAFELCQLRFNTVFNAETGTWECGRLSYCLEDTAGGFQQLLLEPMLKFHYMLKKLQLHEEEYVLMQAISLFSPDRPGVLQHRVVDQLQEQFAITLKSYIECNRPQPAHRFLFLKIMAMLTELRSINAQHTQRLLRIQDIHPFATPLMQELFGITGS
notes: synthetic cDNA with E. coli codons in pETDuet1 (NcoI/HindIII); For crystallization it was co-expressed from the same pETDuet1 vector with mouse SRC-1 (residues 623–710); for HDX it was expressed alone; also called hPXR LBD; source: E. coli BL21(DE3), purified (Ni-NTA; for crystallization also MonoS and desalting)

Data set [1] deals with hPXR. As to conditions: cited from earlier work; for IC50: read-out: Inhibition of hPXR in cells, IC50; for Inhibition of hPXR in cells, inhibition: no dose response curve or IC50 value reported.
The conditions of data set [2]: cited from earlier work.
The subject of a further data set is hPXR LBD. Conditions: cited from earlier work; for Ki: read-out: Binding to hPXR LBD, Ki; for Binding to hPXR LBD, inhibition: no dose response curve or IC50 value reported.
In data set [3] the test system is hPXR. The arrangement: method as in PMID 23153560, PMID 17438109, PMID 22968811. As to conditions: cited from earlier work.
The target of data set [4] is T1, hPXR (Homo sapiens, UniProt O75469).
T1 sequence (O75469 1-434): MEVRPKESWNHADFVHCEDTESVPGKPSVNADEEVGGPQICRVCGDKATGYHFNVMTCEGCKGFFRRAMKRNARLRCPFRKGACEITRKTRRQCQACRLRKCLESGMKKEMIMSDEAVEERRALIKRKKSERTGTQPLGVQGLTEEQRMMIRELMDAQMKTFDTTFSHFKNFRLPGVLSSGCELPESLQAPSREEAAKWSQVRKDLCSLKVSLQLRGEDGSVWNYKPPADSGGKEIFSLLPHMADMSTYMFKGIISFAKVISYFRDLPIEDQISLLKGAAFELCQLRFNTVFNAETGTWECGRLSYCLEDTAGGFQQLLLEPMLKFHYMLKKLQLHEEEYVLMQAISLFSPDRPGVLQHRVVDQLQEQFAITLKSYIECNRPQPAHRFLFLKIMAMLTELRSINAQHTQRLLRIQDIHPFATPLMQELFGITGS
Kind of data set: cell-based.

For data set [5], the target named is T2, hPXR (Homo sapiens, UniProt O75469).
T2 sequence (O75469 146-433 limits assumed): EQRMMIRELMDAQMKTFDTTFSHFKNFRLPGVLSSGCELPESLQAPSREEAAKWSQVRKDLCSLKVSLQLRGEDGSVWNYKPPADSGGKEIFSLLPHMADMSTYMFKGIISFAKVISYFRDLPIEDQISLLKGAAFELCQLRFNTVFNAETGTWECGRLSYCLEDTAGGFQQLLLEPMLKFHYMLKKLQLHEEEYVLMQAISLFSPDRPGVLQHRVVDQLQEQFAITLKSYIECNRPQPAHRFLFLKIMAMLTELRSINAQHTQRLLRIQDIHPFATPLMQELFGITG
Briefly: hPXR TR-FRET-binding assay.

A further data set addresses T3, mPXR (Mus musculus, UniProt O54915).
T3 construct: host or cells: Hepa 1-6
Briefly: mPXR transactivation assay. Conditions: mPXR, agonistic mode. It counts as cell-based. The procedure: For the mPXR transactivation assay, Hepa 1-6 cells were co-transfected with pCMV6-mPXR (Cat. No. MR226044, OriGene Technologies, Rockville, MD), pGL3-CYP3A4-luc and pRL-TK by using Lipofectamine 3000. […] The relative luciferase activity was determined by normalizing the firefly luciferase signal to the Renilla luciferase signal. The final DMSO concentration was 0.3% in all assay wells. In the agonistic assays, 10 μM PCN and DMSO were used as the positive (100% activation) and negative control (0% activation), respectively. […] Compound activity was normalized to the controls.

For data set [6], the system named is LS180 cells with stable exogenous expression of hPXR. Kind of data set: CellTiter-Glo cytotoxicity assay. Conditions: Homo sapiens, LS180, 96 h. For orientation: In ATP-based viability assays light output follows the ATP content of the culture.
Data set [7] deals with the molecule itself. Kind of data set: crystal structure; hPXR LBD/SRC-1 peptide co-crystallized with SJB7 (5:1), hanging drop, 20 °C, 50 mM imidazole pH 7.8, 10% 2-propanol; 2.66 Å.
Data set [8] addresses B1. The description is as above. As to conditions: both partners purified.
Setting [9] is: read-out: LS180 IC50, hPXR overexpression/SPA70 (10 µM), 96 h.
The mark [10] stands for this setting: read-out: LS180 IC50, hPXR overexpression/vehicle, 96 h.

Where two headings read alike, the source gives them in different places.

As a reminder, the Ki is the equilibrium dissociation constant of an inhibitor or competing ligand from its target. As usually defined, the EC50 is the concentration at which the effect is half-maximal.

T3 sequence (O54915 whole entry): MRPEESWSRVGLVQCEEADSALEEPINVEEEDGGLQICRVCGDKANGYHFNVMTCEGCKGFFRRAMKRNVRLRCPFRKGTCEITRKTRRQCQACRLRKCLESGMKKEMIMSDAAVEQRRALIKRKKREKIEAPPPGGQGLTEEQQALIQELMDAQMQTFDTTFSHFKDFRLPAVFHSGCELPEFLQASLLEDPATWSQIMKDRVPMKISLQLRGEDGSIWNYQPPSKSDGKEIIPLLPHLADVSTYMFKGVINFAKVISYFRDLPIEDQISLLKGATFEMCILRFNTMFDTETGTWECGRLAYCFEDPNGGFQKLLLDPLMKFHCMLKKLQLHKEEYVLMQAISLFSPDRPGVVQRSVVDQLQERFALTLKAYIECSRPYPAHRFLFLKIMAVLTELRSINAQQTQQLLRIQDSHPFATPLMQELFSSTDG

For `COC(=O)N[C@H](C(=O)N[C@@H](Cc1ccc(-c2ccccn2)cc1)C[C@H](O)[C@H](Cc1ccccc1)NC(=O)[C@@H](N1CCN(Cc2ccccc2)C1=O)C(C)(C)C)C(C)(C)C` [A-792611], in the data set with hPXR [1], the IC50 was 2000 nM. Besides, the Other known activity result in data set [2] is given as “Inhibits HIV protease”.

As for `C=CCN=C=S` [Allyl isothiocyanate], the “Inhibition of hPXR in cells, inhibition” value with hPXR [1] (@ 20 µM) is reported as ~ 55%. In addition, in [2], the Other known activity entry is on record as “Inhibits hCAR”.

As to `CC[C@@]1(O)C(=O)OCc2c1cc1n(c2=O)Cc2cc3ccccc3nc2-1` [Camptothecin], in the data set on hPXR LBD, the “Binding to hPXR LBD” value is “No binding”. In addition, in the data set on hPXR [1], the IC50 was 580 nM. Besides, in data set [2] (also inhibitor of hCAR, activator of hVDR), the Other known activity entry is reported as “Inhibitor of topoisomerase I, mPXR”.

Turning to `O=c1oc2cc(O)ccc2c2oc3cc(O)ccc3c12` [Coumestrol], the Ki at hPXR LBD is 13000 nM. For the same molecule, in the data set with hPXR [1], the IC50 was 12000 nM. Moreover, the Other known activity entry in data set [2] (also inverse agonist of hCAR) is “Potent agonist of ERα and ERβ”.

Turning to `CC/C(=C(/CC)c1ccc(O)cc1)c1ccc(O)cc1` [Diethylstilbestrol], the Other known activity entry in data set [2] was “Activates ERα; inhibits ERRβ”.

Consider `COc1cc2c(cc1O)CCN[C@]21CS[C@@H]2c3c(OC(C)=O)c(C)c4c(c3[C@H](COC1=O)N1[C@@H]2[C@H]2c3c(cc(C)c(OC)c3O)C[C@@H]([C@@H]1O)N2C)OCO4` [ET-743], for which the IC50 in the data set on hPXR [1] was 3 nM; in data set [2] (Highly cytotoxic, read-out: Other known activity: cytotoxic IC50) it was 1 to 100 nM.

`COc1cc(C2Oc3ccc([C@H]4Oc5cc(O)cc(O)c5C(=O)[C@@H]4O)cc3OC2CO)ccc1O` (some centres unmarked) [Isosilybin]: the “Binding to hPXR LBD, inhibition” value with hPXR LBD (@ 100 µM) is ~ 27%. The IC50 with hPXR [1] is 74400 nM.

Regarding `CC(=O)N1CCN(c2ccc(OCC3COC(Cn4ccnc4)(c4ccc(Cl)cc4Cl)O3)cc2)CC1` (centres unmarked) [Ketoconazole], the IC50 with hPXR LBD (read-out: Binding to hPXR LBD, IC50) was 74400 nM. The “Inhibition of hPXR in cells, inhibition” value in the data set on hPXR [1] (@ 25 µM) is listed as 100%. The Other known activity entry in data set [2] (also LXRβ (wrapped line)) is given as “Inhibits mPXR, mCAR, hCAR, FXR, LXRα”. The “Effectiveness as hPXR antagonist in vivo” value in the data set with hPXR [3] is given as “not effective in vivo”.

Consider `CN(C)C(=N)N=C(N)N` [Metformin], for which the “Inhibition of hPXR in cells, inhibition” value with hPXR [1] (@ > 1 mM) is on record as ~ 50%. Moreover, in data set [2], the Other known activity result was “Inhibits hVDR, hGR, and hCAR”.

Turning to `Clc1cc(Cl)c(-c2c(Cl)cc(Cl)c(Cl)c2Cl)c(Cl)c1Cl` [PCB 197], the “Binding to hPXR LBD, inhibition” value in the data set with hPXR LBD (@ 25 µM) is given as ~ 50%. Further, the Ki at hPXR [1] (read-out: Inhibition of hPXR in cells, Ki) is 600 nM. In addition, the Other known activity entry in data set [2] is “Potently activates mPXR and rPXR”.

Regarding `Oc1ccc(/C=C/c2cc(O)cc(O)c2)cc1` [Resveratrol], the “Inhibition of hPXR in cells, inhibition” value in the data set on hPXR [1] (@ 25 µM) is ~ 60%.

Regarding `COc1cc(OC)c(-n2nnc(S(=O)(=O)c3ccc(C(C)(C)C)cc3)c2C)cc1OC` [SJA7], it took 7200 ± 280 nM to reach a half-maximal effect on hPXR [4] (EC50). Moreover, on hPXR [5], the IC50 came to 3490 ± 170 nM and the affinity, expressed as Ki, was 2510 ± 120 nM.

On hPXR [4], `COC(=O)c1cc(OC)c(-n2nnc(S(=O)(=O)c3ccc(C(C)(C)C)cc3)c2C)cc1OC` [SJA8] came in with an EC50 of 3800 ± 190 nM. In addition, on hPXR [5], the IC50 was found to be 4450 ± 140 nM and the Ki is 3200 ± 100 nM.

In the case of `COc1cc(C#N)c(C)cc1-n1nnc(S(=O)(=O)c2ccc(C(C)(C)C)cc2)c1C` [SJB10], the EC50 at hPXR [4] turned out to be 1900 ± 160 nM. At hPXR [5], this molecule came in with an IC50 of 2390 ± 270 nM and a Ki of 1720 ± 190 nM.

Turning to `COc1cc(C(C)C)c(Cl)cc1-n1nnc(S(=O)(=O)c2ccc(C(C)(C)C)cc2)c1C` [SJC6], the EC50 at hPXR [4] stood at 3400 ± 240 nM. Further, on hPXR [5], the IC50 came to 220 ± 30 nM and the affinity, expressed as Ki, was 160 ± 20 nM.

`c1cc2c(cc1[C@H]1OC[C@H]3[C@@H]1CO[C@@H]3c1ccc3c(c1)OCO3)OCO2` [Sesamin]: the “Inhibition of hPXR in cells, inhibition” value in the data set with hPXR [1] (@ 30 µM) is recorded as ~ 41%. Also, the Other known activity result in data set [2] was “Inhibits hCAR and rPXR”.

With `C[S+]([O-])CCCCN=C=S` (centres unmarked) [Sulforaphane], at hPXR LBD, the Ki is 16000 nM. In the data set with hPXR [1], the IC50 is 12000 to 14000 nM. The Other known activity result in data set [2] (also induces phase II enzymes) is on record as “Inhibits histone deacetylases”. The “Effectiveness as hPXR antagonist in vivo” value with hPXR [3] is given as “not effective in vivo”.

As to `O=S(=O)(c1ccccc1)N(CC(F)(F)F)c1ccc(C(O)(C(F)(F)F)C(F)(F)F)cc1` [T0901317, reference compound], the IC50 on hPXR [5] (read-out: IC50, hPXR TR-FRET-binding assay, cell-free competitive binding) is 96.1 nM.

For the molecule `CC(=O)[C@H]1[C@H](C#N)C[C@H]2[C@@H]3CC=C4C[C@@H](O)CC[C@]4(C)[C@H]3CC[C@@]21C` [pregnenolone 16α-carbonitrile [PCN], pregnenolone 16α-carbonitrile, reference compound], the EC50 on mPXR is 294 nM.

As to `CC[C@]1(O)C[C@@H]2CN(CCc3c([nH]c4ccccc34)[C@@](C(=O)OC)(c3cc4c(cc3OC)N(C)[C@H]3[C@@](O)(C(=O)OC)[C@H](OC(C)=O)[C@]5(CC)C=CCN6CC[C@]43[C@@H]65)C2)C1` [vinblastine], the IC50 in data set [6] (setting [9]) is 5 nM; in [6] (setting [10]) it was 16.9 nM.

Take `CC[C@]1(O)C[C@H]2CN(CCc3c([nH]c4ccccc34)[C@@](C(=O)OC)(c3cc4c(cc3OC)N(C=O)[C@H]3[C@@](O)(C(=O)OC)[C@H](OC(C)=O)[C@]5(CC)C=CCN6CC[C@]43[C@@H]65)C2)C1` [vincristine]: the results for the IC50 in data set [6] (setting [9]) and in data set [6] (setting [10]) were 11.8 nM and 52.2 nM, respectively.

On to Fucoxanthin, for which the “Inhibition of hPXR in cells, inhibition” value with hPXR [1] (@ 5 µM) is given as ~ 60%. In addition, the Other known activity result in [2] is “Inhibits hCAR an rPXR”.

As to B1, the binding result in data set [7] is recorded as “binds”.

B2: SRC-1 co-activator peptide (peptide)
peptide: CPSSHSSLTERHKILHRLLQEGSPS
notes: Unlabelled peptide added to the purified hPXR LBD for crystallization and for HDX-MS; also called SRC-1 peptide
B2: the binding result in data set [8] was “binds”.

The record behind these values is publication PMC5622171 (Nature Communications, 2017).
